Assay results published in patent publication US12486278B2, “MASP-2 inhibitors and methods of use” (Omeros Corporation, priority 2019, dated 2025).
pKi: −log10 of the molar value. Structures can show the parent of a compound that is named as a salt.

Target: T1, MASP-2 (CCP1-CCP2-SP) (Homo sapiens, UniProt O00187)
T1 construct: 15 μL of Enzyme MASP-2 (CCP1-CCP2-SP) in Assay Buffer
Assay: Enzymatic Assay for MASP-2 (fluorogenic substrate)
Assay type: biochemical
Details: fluorogenic substrate based on C2 cleavage site; room temperature, 20 min; 20 mM HEPES pH 7.4, 140 mM NaCl, 0.1% Tween 20
Procedure, shortened: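 Fluorogenic substrate built on the C2 cleavage site, in 20 mM HEPES pH 7.4, 140 mM NaCl, 0.1% Tween 20, run at room temperature for 20 min before an acetic acid stop. Fluorescence normalised to DMSO-only and no-enzyme controls; IC50 taken as equivalent to Ki, with tight- or slow-binding inhibitors treated separately.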

T1 sequence (O00187 445-686 limits assumed): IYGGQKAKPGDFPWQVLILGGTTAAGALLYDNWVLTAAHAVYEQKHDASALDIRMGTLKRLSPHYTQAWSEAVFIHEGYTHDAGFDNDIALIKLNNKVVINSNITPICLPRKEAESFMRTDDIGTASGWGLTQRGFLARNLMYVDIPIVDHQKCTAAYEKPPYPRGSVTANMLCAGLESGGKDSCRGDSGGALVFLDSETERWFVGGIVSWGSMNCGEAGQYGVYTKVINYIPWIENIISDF
T1 sequence (O00187 298-444 partner limits assumed): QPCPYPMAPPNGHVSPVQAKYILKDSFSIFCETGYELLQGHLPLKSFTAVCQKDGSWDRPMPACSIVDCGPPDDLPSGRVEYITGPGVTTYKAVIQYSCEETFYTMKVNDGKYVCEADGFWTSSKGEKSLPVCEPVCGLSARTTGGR

pKi | SMILES
> 6.30 | C[C@H](NC(=O)[C@H]1C[C@H](Cc2cccc(C(=O)O)c2)CN1)C(=O)NCc1ccc(C(=N)N)cc1 [Compound I-55, 3-(((3S,5R)-5-(((S)-1-((4-Carbamimidoylbenzyl)Amino)-1-Oxopropan-2-Yl)Carbamoyl)Pyrrolidin-3-Yl)Methyl)Benzoic Acid Di-Trifluoroacetate]
> 6.30 | COC(=O)c1cccc(C[C@@H]2CN[C@@H](C(=O)N[C@@H](C)C(=O)NCc3ccc(C(=N)N)cc3)C2)c1 [Compound I-54, Methyl 3-(((3S,5R)-5-(((S)-1-((4-Carbamimidoylbenzyl)Amino)-1-Oxopropan-2-Yl)Carbamoyl)Pyrrolidin-3-Yl)Methyl)Benzoate Di-Trifluoroacetate]
> 6.30 | [2H]C([2H])([2H])n1cc(Cl)c2cc(CNC(=O)[C@H](C)NC(=O)[C@H]3C[C@H](Cc4ccccc4)CN3)cnc21 [Compound I-45, (2R,4S)-4-Benzyl-N—((S)-1-(((3-Chloro-1-(Methyl-D3)-1H-Pyrrolo[2,3-B]Pyridin-5-Yl)Methyl)Amino)-1-Oxopropan-2-Yl)Pyrrolidine-2-Carboxamide Hydrochloride]
> 6.30 | Cc1nc(N)ccc1CNC(=O)[C@H](C)NC(=O)[C@H]1C[C@H](Cc2ccc(F)c(Cl)c2)CN1CC(=O)O [Compound I-33, 2-((2R,4S)-2-(((S)-1-(((6-Amino-2-Methylpyridin-3-Yl)Methyl)Amino)-1-Oxopropan-2-Yl)Carbamoyl)-4-(3-Chloro-4-Fluorobenzyl)Pyrrolidin-1-Yl)Acetic Acid Di-Trifluoroacetate]
> 6.30 | Cc1nc(N)ccc1CNC(=O)[C@H](C)NC(=O)[C@H]1C[C@H](Cc2ccc(F)c(Cl)c2F)CN1 [Compound I-88, (2R,4S)—N—((S)-1-(((6-Amino-2-Methylpyridin-3-Yl)Methyl)Amino)-1-Oxopropan-2-Yl)-4-(3-Chloro-2,4-Difluorobenzyl)Pyrrolidine-2-Carboxamide Dihydrochloride]
> 6.30 | C[C@H](NC(=O)[C@H]1C[C@H](Cc2ccc(Cl)s2)CN1)C(=O)NCc1cnc2c(c1)c(Cl)cn2C [Compound I-84, (2R,4R)—N—((S)-1-(((3-Chloro-1-Methyl-1H-Pyrrolo[2,3-B]Pyridin-5-Yl)Methyl)Amino)-1-Oxopropan-2-Yl)-4-((5-Chlorothiophen-2-Yl)Methyl)Pyrrolidine-2-Carboxamide Dihydrochloride]
> 6.30 | COC(=O)c1cccc(C[C@@H]2CN[C@@H](C(=O)N[C@@H](C)C(=O)NCc3ccc(N)nc3C)C2)c1 [Compound I-47, Methyl 3-(((3S,5R)-5-(((S)-1-(((6-Amino-2-Methylpyridin-3-Yl)Methyl)Amino)-1-Oxopropan-2-Yl)Carbamoyl)Pyrrolidin-3-Yl)Methyl)Benzoate Dihydrochloride]
> 6.30 | Cc1cccc([C@@H]2CN[C@@H](C(=O)N[C@@H](C)C(=O)NCc3ccc(C(=N)N)cc3)C2)c1 [Compound I-13, (2R,4R)—N—((S)-1-((4-Carbamimidoylbenzyl)Amino)-1-Oxopropan-2-Yl)-4-(M-Tolyl)Pyrrolidine-2-Carboxamide]
> 6.30 | CCOC(=O)CCN1CC[C@H](c2ccccc2)C[C@@H]1C(=O)N[C@@H](C)C(=O)NCc1ccc(C(=N)N)cc1 [Compound I-31, Ethyl 3-((2R,4S)-2-(((S)-1-((4-Carbamimidoylbenzyl)Amino)-1-Oxopropan-2-Yl)Carbamoyl)-4-Phenylpiperidin-1-Yl)Propanoate]
> 6.30 | Cc1nc(N)ccc1CNC(=O)[C@H](C)NC(=O)[C@H]1C[C@H](Cc2cc(Br)c(Br)s2)CN1 [Compound I-17, (2R,4R)—N—((S)-1-(((6-Amino-2-Methylpyridin-3-Yl)Methyl)Amino)-1-Oxopropan-2-Yl)-4-((4,5-Dibromothiophen-2-Yl)Methyl)Pyrrolidine-2-Carboxamide Di-Trifluoroacetate]
> 6.30 | C[C@H](NC(=O)[C@H]1C[C@@H](c2ccccc2)CCN1CCNS(C)(=O)=O)C(=O)NCc1cc2cnccc2[nH]1 [Compound I-42, (2R,4S)—N—((S)-1-(((1H-Pyrrolo[3,2-C]Pyridin-2-Yl)Methyl)Amino)-1-Oxopropan-2-Yl)-1-(2-(Methylsulfonamido)Ethyl)-4-Phenylpiperidine-2-Carboxamide Di-Trifluoroacetate]
> 6.30 | C[C@H](NC(=O)[C@H]1C[C@H](Cc2ccnc(N)c2)CN1)C(=O)NCc1ccc(C(=N)N)cc1 [Compound I-56, (2R,4S)-4-((2-Aminopyridin-4-Yl)Methyl)-N—((S)-1-((4-Carbamimidoylbenzyl)Amino)-1-Oxopropan-2-Yl)Pyrrolidine-2-Carboxamide Di-Trifluoroacetate]
> 6.30 | C[C@H](NC(=O)[C@H]1C[C@@H](c2ccccc2)CCN1CCC(=O)O)C(=O)NCc1cc2cnccc2[nH]1 [Compound I-107, 3-((2R,4S)-2-(((S)-1-(((1H-pyrrolo[3,2-c]pyridin-2-yl)methyl)amino)-1-oxopropan-2-yl)carbamoyl)-4-phenylpiperidin-1-yl)propanoic acid di-trifluoroacetate salt]

Continued, molecule first:

SMILES | pKi
C[C@H](NC(=O)[C@H]1C[C@H](c2ccccc2)CN1)C(=O)NCc1cc2ccncc2[nH]1 [Compound I-3, (2R,4R)—N—((S)-1-(((1H-pyrrolo[2,3-c]pyridin-2-yl)methyl)amino)-1-oxopropan-2-yl)-4-phenylpyrrolidine-2-carboxamide di-trifluoroacetate] | 5.00 to 5.60
C[C@H](NC(=O)[C@H]1C=C(C2(c3ccccc3)CC2)CN1)C(=O)NCc1ccc(C(=N)N)cc1 [Compound I-52, (R)—N—((S)-1-((4-Carbamimidoylbenzyl)Amino)-1-Oxopropan-2-Yl)-4-(1-Phenylcyclopropyl)-2,5-Dihydro-1H-Pyrrole-2-Carboxamide Di-Trifluoroacetate] | > 6.30
C[C@H](NC(=O)[C@H]1C[C@@H](c2cccc(-n3cccn3)c2)CCN1)C(=O)NCc1ccc(C(=N)N)cc1 [Compound I-77, (2R,4S)-4-(3-(1H-Pyrazol-1-Yl)Phenyl)-N—((S)-1-((4-Carbamimidoylbenzyl)Amino)-1-Oxopropan-2-Yl)Piperidine-2-Carboxamide Dihydrochloride] | > 6.30
C[C@H](NC(=O)[C@H]1C[C@@H](c2cccc(-n3cccn3)c2)CCN1)C(=O)NCc1cc2cnccc2[nH]1 [Compound I-80, (2R,4S)-4-(3-(1H-Pyrazol-1-Yl)Phenyl)-N—((S)-1-(((1H-Pyrrolo[3,2-C]Pyridin-2-Yl)Methyl)Amino)-1-Oxopropan-2-Yl)Piperidine-2-Carboxamide Dihydrochloride] | > 6.30
C[C@H](NC(=O)[C@H]1C[C@H](Oc2ccccc2)CN1)C(=O)NCc1cc2cnccc2[nH]1 [Compound I-97, (2R,4S)—N—((S)-1-(((1H-Pyrrolo[3,2-c]pyridin-2-yl)methyl)amino)-1-oxopropan-2-yl)-4-phenoxypyrrolidine-2-carboxamide di-trifluoroacetate] | > 6.30
C[C@H](NC(=O)[C@H]1C[C@@H](c2cc3ccccc3s2)CCN1)C(=O)NCc1ccc(C(=N)N)cc1 [Compound I-71, (2R,4S)-4-(Benzo[B]Thiophen-2-Yl)-N—((S)-1-((4-Carbamimidoylbenzyl)Amino)-1-Oxopropan-2-Yl)Piperidine-2-Carboxamide Di-Trifluoroacetate] | > 6.30
C[C@H](NC(=O)[C@H]1C[C@H](Cc2ccc(Cl)s2)CN1)C(=O)NCc1cnc2[nH]cc(Cl)c2c1 [Compound I-83, (2R,4R)—N—((S)-1-(((3-Chloro-1H-Pyrrolo[2,3-B]Pyridin-5-Yl)Methyl)Amino)-1-Oxopropan-2-Yl)-4-((5-Chlorothiophen-2-Yl)Methyl)Pyrrolidine-2-Carboxamide Dihydrochloride] | > 6.30
C[C@H](NC(=O)[C@H]1C[C@H](c2ccccc2)CN1)C(=O)NCc1cc2c(Br)cncc2[nH]1 [Compound I-1, (2R,4R)—N—((S)-1-(((4-bromo-1H-pyrrolo[2,3-c]pyridin-2-yl)methyl)amino)-1-oxopropan-2-yl)-4-phenylpyrrolidine-2-carboxamide di-trifluoroacetate] | < 5.00
C[C@H](NC(=O)[C@H]1C[C@@H](c2ccncc2)CN1)C(=O)NCc1ccc(C(=N)N)cc1 [Compound I-95, (2R,4S)—N—((S)-1-((4-carbamimidoylbenzyl)amino)-1-oxopropan-2-yl)-4-(pyridin-4-yl)pyrrolidine-2-carboxamide di-trifluoroacetate] | 5.60 to 6.30
C[C@H](NC(=O)[C@H]1C[C@@H](c2ccccc2)CCN1)C(=O)NCc1cc2cnccc2[nH]1 [Compound I-90, (2R,4S)—N—((S)-1-(((1H-Pyrrolo[3,2-C]Pyridin-2-Yl)Methyl)Amino)-1-Oxopropan-2-Yl)-4-Phenylpiperidine-2-Carboxamide Di-Trifluoroacetate] | > 6.30
C[C@H](NC(=O)[C@H]1C[C@@H](c2ccccc2)CCN1)C(=O)NCc1ccc(C(=N)N)s1 [Compound I-91, (2R,4S)—N—((S)-1-(((5-carbamimidoylthiophen-2-yl)methyl)amino)-1-oxopropan-2-yl)-4-phenylpiperidine-2-carboxamide di-trifluoroacetate] | > 6.30
